Assay results as given in US11623909B2, “Water-based extraction and purification processes for cannabinoid acids” (MEDPHARM IOWA LLC, priority 2019, dated 2023).

Tests used:
[1] = Solubility limit of THCA anions in aqueous NaOH wash (experiment A, 1:1 NaOH:THCA); type: physicochemical; settings: NaOH:THCA 1:1 mol:mol, room temperature, conditions of experiment A
Method: ‘Spent’ CO2-stripped biomass was aliquoted out to 50 g portions (˜6 g THCA). Water (400 ml) and a 40 wt % solution of NaOH (see Tables 4-6) was added to the plant material. The mixture was allowed to stir for 10 minutes at 500-1000 RPM (speed was adjusted to minimize foaming). Solid materials were filtered off with coffee filters. The process was repeated for a total of 4 (Expt A) to 5 (Expts B&C) iterations. A final rinse 2×200 ml with no NaOH was stirred for 1 minute then filtered off. All filtrate was analyzed by HPLC prior to acidification. Acidification to pH 2-3 with HCl, as described above, yielded a precipitate which was filtered off and dried. Both the filtrate and dried material were analyzed by HPLC. All extractions were done at room temperature.
Experiment A utilized a NaOH:THCA (mol:mol) ratio of 1:1 (see Table 4). […] The amount of THCA detected in the filtrate increased with each successive wash until a rinse with no added NaOH was conducted for 1 minute. […] The precipitate was filtered off, collected, and analyzed by HPLC. The filtrate was acidified to pH 2.16 to yield a tan/brown precipitate, filter, collected and analyzed by HPLC. […] The final filtrate (left over after harvesting THCA) contained THCA quantities that were below the limit of quantification (less than 10 mg/400 g wash/rinse; that is <0.001 wt % THCA).

[2] = HPLC of acidified solution after precipitation of cannabinoid acid (amount remaining in solution); type: physicochemical
Excerpt: Precipitation of crude extract (CBDA) by acidification was done with either hydrochloric acid or nitric acid. No difference was observed between the two since the precipitation was pH driven. 1.0-1.5 equivalents of acid (relative to total base) was sufficient for precipitation of the crude extract. The crude extract had CBDA purities on the order of 40-50% and were independent of the amount of acid added. E.g. adding fewer than 1.0 equivalents in an attempt to selectively precipitate either impurities or CBDA yielded crude material with similar purities. Addition of more acid yielded more precipitate of similar purity (up to 1.0-1.5 equivalents). Addition of more than 1.5 equivalents yielded no additional precipitate. Though when the mixture was allowed to sit overnight more white precipitate formed. […]
‘Spent’ CO2-stripped biomass was aliquoted out to 50 g portions (˜6 g THCA). […] All filtrate was analyzed by HPLC prior to acidification. […] Both the filtrate and dried material were analyzed by HPLC. […]
Experiment A utilized a NaOH:THCA (mol:mol) ratio of 1:1 (see Table 4). […] The amount of THCA detected in the filtrate increased with each successive wash until a rinse with no added NaOH was conducted for 1 minute. […] The precipitate was filtered off, collected, and analyzed by HPLC. The filtrate was acidified to pH 2.16 to yield a tan/brown precipitate, filter, collected and analyzed by HPLC. […]

| SMILES | solubility limit for THCA anions [1] | THCA in final filtrate after acidification (below limit of quantification) ([2]; filtrate after acidification to pH 2-3 with HCl and harvesting THCA, experiment A) [wt % THCA] | CBDA remaining in acidified solution (loss) ([2]; acidified solution pH~4, after precipitation of crude extract) [μg CBDA/ml] |
| --- | --- | --- | --- |
| CCCCCc1cc2c(c(O)c1C(=O)O)[C@@H]1C=C(C)CC[C@H]1C(C)(C)O2 [THCA] | around 0.3 wt % | < 0.001 |  |
| C=C(C)[C@@H]1CCC(C)=C[C@H]1c1c(O)cc(CCCCC)c(C(=O)O)c1O [CBDA] |  |  | ~7 |
